Values joined by “and” are separate entries in the source; they are usually repeats but may differ in a detail not shown here. Equal values may be shown once. Read-outs that look alike come from different tables or passages of the source.

One experiment relates to primary adipocytes. Nature of the experiment: Primary adipocyte glucose uptake assay (14C glucose). To be noted: test compound 50 mM without insulin, compared to samples containing only insulin (final concentration=100 μm).
A further experiment deals with insulin receptor (IR). The experiment can be described thus: Phosphotyrosine enzyme linked immunosorbent assay: pTyr on insulin receptor in NIH3T3 cells over-expressing human IR (H25 cells). The settings on record: for CONC. / ACTIVITY (compared to control): Table I; for CONC.: concentration of the compound which produces the percentage increase in phosphotyrosine over the vanadate control, 90 min incubation, no insulin; for EC50: read-out: ACTIVITY EC50; for one point determination, effect on PTYR: at 100 μm.

The term EC50 denotes the concentration needed to bring the measured effect to its halfway point. Turning to `O=[N+]([O-])c1cnc(Sc2nnc(O)n2Cc2ccccc2)s1` [Compound 7], the “response in the primary adipocyte glucose uptake assay compared with the insulin control” value (“response … compared with the insulin control” for short) with primary adipocytes is on record as “did not give a response greater than or equal to the insulin control”. The CONC. in the experiment on insulin receptor (IR) is 200 µM and 100 µM. In the experiment with insulin receptor (IR) (Table II, […], no lot stated), the EC50 came to 13 µM.
Consider `Cc1nccc(C(F)(F)F)c1-c1nnc(Sc2ncc([N+](=O)[O-])s2)o1` [Compound 86, 2-[2-Methyl-4-(trifluoromethyl)pyrid-3-yl]-5-[(5-nitrothiazol-2-yl)mercapto]-1,3,4-oxadiazole], for which the “response … compared with the insulin control” value in the experiment on primary adipocytes was “did not give a response greater than or equal to the insulin control”. Further, the “increase in PTYR” value with insulin receptor (IR) (Table II, at 25 μM) is recorded as 59%.
Consider `CC(C)n1c(Sc2ncc([N+](=O)[O-])s2)nc2ccccc21` [Compound 94, 1-Isopropyl-2-[(5-nitrothiazol-2-yl)mercapto]benzimidazole], for which, in the experiment with primary adipocytes, the “response … compared with the insulin control” value was “did not give a response greater than or equal to the insulin control”. The concentration for a half-maximal effect (EC50) with insulin receptor (IR) (Table II, […], no lot stated) is greater than 100 µM.
In the case of `CC(C)n1c(Sc2ncc([N+](=O)[O-])s2)nc2cc(C(F)(F)F)ccc21` [Compound 95, 1-Isopropyl-2-[(5-nitrothiazol-2-yl)mercapto]-5-(trifluoromethyl)benzimidazole], the “response … compared with the insulin control” value with primary adipocytes was “did not give a response greater than or equal to the insulin control”. The concentration for a half-maximal effect (EC50) in the experiment on insulin receptor (IR) (Table II, […], no lot stated) is greater than 100 µM.
As for `Nc1nnc(Sc2ncc([N+](=O)[O-])s2)s1` [Compound 14], in the experiment with primary adipocytes, the “response … compared with the insulin control” value is given as “did not give a response greater than or equal to the insulin control”. The EC50 with insulin receptor (IR) (Table II, […], no lot stated) was 8 µM.
Take `CC(C)(C)c1nc(Sc2ncc([N+](=O)[O-])s2)n[nH]1` [Compound 2, 2-[(5-nitro-thiazol-2-yl)mercapto]-5-t-butyl-1,2,4-triazole]: the “response … compared with the insulin control” value in the experiment on primary adipocytes is reported as “did not give a response greater than or equal to the insulin control”. The molecule further showed a CONC. with insulin receptor (IR) of 4.1 µM. The 50% effective concentration (EC50) in the experiment with insulin receptor (IR) (Table II, […], no lot stated) lay within 16 to 20 µM.
On to `O=[N+]([O-])c1cnc(Sc2n[nH]c(-c3ccccc3)n2)s1` [Compound 1, 3-[(5-nitrothiazol-2-yl)mercapto]-5-phenyl-1,2,4-triazole], for which, in the experiment with primary adipocytes, the “response … compared with the insulin control” value was “did not give a response greater than or equal to the insulin control”. Besides, in the experiment with insulin receptor (IR) ([…]), the “ACTIVITY (compared to control)” value was determined as 30%. Moreover, the CONC. with insulin receptor (IR) is 53 µM. The EC50 in the experiment with insulin receptor (IR) (Table II, […], no lot stated) stood at 17 µM.
Turning to `O=[N+]([O-])c1cnc(Sc2n[nH]c(-c3cccs3)n2)s1` [Compound 3, 3-[(5-nitrothiazol-2-yl)mercapto]-5-(thien-2-yl)-1,2,4-triazole], the “response … compared with the insulin control” value in the experiment on primary adipocytes is on record as “did not give a response greater than or equal to the insulin control”. Further, the “ACTIVITY (compared to control)” value in the experiment on insulin receptor (IR) ([…]) was 50%. Moreover, the CONC. in the experiment on insulin receptor (IR) came to 77 µM. The EC50 in the experiment with insulin receptor (IR) (Table II, […], no lot stated) is 22 to 32 µM.
Take “2-[(5-nitrothiazol-2-yl)mercapto]-3-cyano-5-acetoxy-6-dimethoxymethyl-pyridine [Compound 97]”: in the experiment on primary adipocytes, the “response … compared with the insulin control” value is reported as “did not give a response greater than or equal to the insulin control”. Moreover, the “level of pTyr on insulin receptor over time (FIG. 1)” value in the experiment on insulin receptor (IR) (kinetic experiments, range of concentrations, period of 90 minutes) was “progressively raised the level of pTyr on insulin receptor”. Also, the EC50 in the experiment on insulin receptor (IR) was 34 µM.
On to `Cn1ccnc1Sc1ncc([N+](=O)[O-])s1` [Compound 13, 1-Methyl-2-[(5-nitrothiazol-2-yl)mercapto]imidazole], for which the “response … compared with the insulin control” value with primary adipocytes was “did not give a response greater than or equal to the insulin control”. Also, the EC50 in the experiment on insulin receptor (IR) (Table II, LOT 1) was determined as 13 µM; in the experiment on insulin receptor (IR) (Table II, LOT 2), 14 µM.
Regarding `O=[N+]([O-])c1cnc(Sc2ncc(C(F)(F)F)cn2)s1` [Compound 83, 2-[(5-Nitrothiazol-2-yl)mercapto]-5-(trifluoromethyl)pyrimidine], the “response … compared with the insulin control” value in the experiment with primary adipocytes is recorded as “did not give a response greater than or equal to the insulin control”. Also, the EC50 in the experiment with insulin receptor (IR) (Table II, […], no lot stated) was 8.8 µM.
As to `O=[N+]([O-])c1cnc(Sc2nnc(O)n2-c2ccccc2C(F)(F)F)s1` [Compound 8, 3-hydroxy-5-[(5-nitrothiazol-2-yl)mercapto]-4-[2-(trifluoromethyl)phenyl]-1,2,4-triazole], in the experiment with primary adipocytes, the “response … compared with the insulin control” value is “did not give a response greater than or equal to the insulin control”. Further, the “ACTIVITY (compared to control)” value with insulin receptor (IR) ([…]) was determined as 30%. The same molecule showed a CONC. in the experiment with insulin receptor (IR) of 24 µM.
For `O=[N+]([O-])c1cnc(Sc2nnc(O)n2-c2ccccc2)s1` [Compound 5, 3-hydroxy-5-[(5-nitrothiazol-2-yl)mercapto]-4-phenyl-1,2,4-triazole], the “response … compared with the insulin control” value with primary adipocytes is on record as “did not give a response greater than or equal to the insulin control”. Besides, the “ACTIVITY (compared to control)” value in the experiment on insulin receptor (IR) ([…]) is 30%. In addition, the CONC. with insulin receptor (IR) was determined as 13 µM. Further, the EC50 in the experiment with insulin receptor (IR) (Table II, […], no lot stated) was 13 to 20 µM.
With `Cn1c(O)nnc1Sc1ncc([N+](=O)[O-])s1` [Compound 99], the “response … compared with the insulin control” value in the experiment with primary adipocytes is given as “did not give a response greater than or equal to the insulin control”. In addition, the “one point determination, effect on PTYR” value with insulin receptor (IR) (Table II) was “no effect”.
The like results for `CCCCCn1c(O)nnc1Sc1ncc([N+](=O)[O-])s1` [Compound 100] were, in that order, “did not give a response greater than or equal to the insulin control” and “no effect”.
Consider `CCn1nc(C)cc1-c1nnc(Sc2ncc([N+](=O)[O-])s2)n1CCCOC` [Compound 9, 3-(1-ethyl-3-methylpyrazol-5-yl)-4-(3-methoxy-n-propyl)-5-[5-(nitrothiazol-2-yl)mercapto]-1,2,4-triazole], for which the “response … compared with the insulin control” value with primary adipocytes is reported as “did not give a response greater than or equal to the insulin control”. Moreover, the “ACTIVITY (compared to control)” value with insulin receptor (IR) ([…]) is recorded as 50%. Further, the CONC. in the experiment on insulin receptor (IR) turned out to be 3.9 µM. The EC50 with insulin receptor (IR) (Table II, LOT 2) came to 6 µM; with insulin receptor (IR) (Table II, LOT3), 16 µM.
Turning to `O=[N+]([O-])c1cnc(Sc2nc(-c3ccc(Cl)cc3)n[nH]2)s1` [Compound 4, 3-(4-chlorophenyl)-5-[(5-nitrothiazol-2-yl)mercapto]-1,2,4-triazole], the “response … compared with the insulin control” value in the experiment with primary adipocytes was “did not give a response greater than or equal to the insulin control”. In addition, in the experiment with insulin receptor (IR) ([…]), the “ACTIVITY (compared to control)” value was 30%. The molecule also returned a CONC. with insulin receptor (IR) of 100 µM. Besides, the half-maximal effective concentration (EC50) in the experiment with insulin receptor (IR) (Table II, […], no lot stated) fell in the range of 15 to 49 µM.
For `O=[N+]([O-])c1cnc(Sc2nc3cnccc3[nH]2)s1` [Compound 101], in the experiment with primary adipocytes, the “response … compared with the insulin control” value is listed as “did not give a response greater than or equal to the insulin control”. Also, the EC50 in the experiment on insulin receptor (IR) (Table II, […], no lot stated) was in the range of 7 to 15 µM.
On to `O=[N+]([O-])c1cnc(Sc2nc3ccccc3[nH]2)s1` [Compound 79, 2-[(5-Nitrothiazol-2-yl)mercapto]benzimidazole], for which, in the experiment on primary adipocytes, the “response … compared with the insulin control” value was “did not give a response greater than or equal to the insulin control”. Further, in the experiment with insulin receptor (IR) (Table III, […]), the EC50 was found to be 23 µM.
On to `O=[N+]([O-])c1cnc(Sc2nnc(O)n2C2CCCCC2)s1` [Compound 6, 4-Cyclohexyl-3-hydroxy-5-[(5-nitrothiazol-2-yl)mercapto]-1,2,4-triazole], for which the “response … compared with the insulin control” value in the experiment with primary adipocytes is “did not give a response greater than or equal to the insulin control”. Also, the “ACTIVITY (compared to control)” value with insulin receptor (IR) ([…]) stood at 30%. In the experiment with insulin receptor (IR), this molecule gave a CONC. of 100 µM. Besides, in the experiment on insulin receptor (IR) (Table II, at 100 μM), the “increase (PTYR)” value is 50%.

Source of the values: patent publication US6080772A, “Thiazole compounds and methods of modulating signal transduction” (Sugen, Inc., priority 1997, dated 2000).
